# Measured values as given in patent US9309187B2, “EP2 receptor agonists” (TAKEDA GMBH, priority 2012, dated 2016).
# What was measured:
# [1] = tested on: plasma TNFα after i.v. LPS; assay: In vivo assay: LPS-induced TNFα release in rats; parameters: species or system Sprague Dawley rats; conditions: Rattus norvegicus; p.o. 1 h prior to i.v. LPS 20 μg/kg; plasma TNFα 1 h after LPS
# Procedure: In Vivo Assay: LPS-Induced TNFα Release in Rats
# Intravenously administration of lipopolysaccharide (LPS) causes a systemic inflammation characterised by release of pro-inflammatory cytokines, e.g. tumor necrosis factor alpha (TNFα). Selective EP2 agonists are administered per oral 1 h prior intravenously LPS challenge in rats. The anti-inflammatory activity of the selective EP2 agonists is assessed based on TNFα levels in blood plasma 1 h after LPS exposure.
# Male Sprague Dawley rats weighing 250-300 g were used. Rats were delivered 1 week prior to the experiments and had free access to water and food.
# (§1) The test compound was mixed with 1.33% polyethylenglycol 400 (PEG400, Merck, Darmstadt, Germany) and subsequently suspended in 2% methocel solution (hypromellose, Sigma, Steinheim, Germany) containing Antifoam C Emulsion (Sigma, Steinheim, Germany, 0.1 mL/15 mL) using a mixing device (ULTRA-TURRAX T8 basic, VDI12, VWR International GmbH). The aimed doses were prepared by dilution series from the stock suspension, which was prepared for the administration of the highest dose in each experiment.
# (§2) The administered volume of the compound suspension is 10 mL/kg. On day of the experiment the rat body weights were documented to calculate the volume to be administered. LPS challenged control animals received drug-free vehicle solution as placebo. Test compounds and vehicle were administered by oral gavage 1 h prior to LPS challenge.
# LPS (from Escherichia coli 055:B5, Sigma, Steinheim, Germany) was solubilised in 0.9% sterile NaCl solution (B. Braun Melsungen AG, Melsungen, Germany) containing 0.1% hydroxylamine (Sigma, Steinheim, Germany). LPS is intravenously (i.v.) injected at a dose of 20 μg/kg (1 mL/kg b.w.) 1 h after compound or vehicle administration.
# One hour after LPS-challenge, the animals were sacrificed by inhalative isofluran anaesthesia and subsequently cervical dislocation. Heparinised blood was obtained by heart puncture. Blood was centrifuged (21,000×g, 4° C., 10 min), and plasma samples were kept frozen at −20° C. until determination of TNFα levels by ELISA. TNFα was measured with a commercially available ELISA-Kit (Quantikine®, Rat TNFα/TNFSF1A, R&D Systems, Minneapolis, USA).
# The compound effect on TNFα release was calculated individually in percent (%) for each compound treated animal in relation to the mean TNFα level of the vehicle treated LPS-challenged control group: % effect=(Y−K)/K*100 • with defining: • Y=plasma TNFα concentration of the compound treated animal • K=mean plasma TNFα concentration of the vehicle treated group
# Statistical analysis was performed on the primary TNFα concentrations by One-Way ANOVA and Dunnett's Multiple Comparison test vs. vehicle treated control group.
# [2] = tested on: total leukocyte and neutrophil counts in bronchoalveolar lavage fluid; assay: In vivo assay: LPS-induced pulmonary inflammation model in rats; parameters: species or system Sprague Dawley rats; conditions: Rattus norvegicus, po; p.o. 1 h prior to LPS aerosol; BAL cell counts 4 h after LPS
# Procedure: In Vivo Assay: LPS-Induced Pulmonary Inflammation Model in Rats
# Exposure of rats to aerosolised lipopolysaccharide (LPS) causes a pulmonary mainly neutrophilic inflammation, which can be assessed by bronchoalveolar lavage (BAL). LPS-induced pulmonary inflammation models are robust and are commonly used for the evaluation of test compounds modulating the immediate immune response. Selective EP2 agonists are administered per oral 1 h prior nose-only LPS challenge in rats. The anti-inflammatory activity of the selective EP2 agonists is assessed based on pulmonary total leukocyte and neutrophil counts in the bronchoalveolar lavage fluid 4 h after LPS exposure.
# Male Sprague Dawley rats weighing 250-300 g were used. Rats were delivered 1 week prior to the experiments and hadfree access to water and food.
# as §1
# as §2, with “suspension was” for “suspension is”, “challenged and unchallenged” for “challenged”, “received compound-free” for “received drug-free”
# Conscious and restrained animals were connected to a nose-only exposure system (CR equipment SA, Tannay, Switzerland) and were exposed to the LPS aerosol for 30 min. The LPS-containing aerosol was generated using a compressed air driven medication nebulizer device (Pari LC Sprint Star, Pari GmbH, Starnberg, Germany). The LPS solution (E. coli, Serotype 055B5, Sigma-Aldrich, 1 mg/ml diluted in PBS) was prepared 30 minutes in advance. The aerosol was dispersed and transported to the exposure tower by a sheath air flow of 6001/h. All rats except negative controls were exposed to LPS.
# 4 hours after LPS challenge, animals were anesthetised by isoflurane and scarified by cervical dislocation. BALs were performed. For the BAL the trachea was exposed and cannulated, followed by gently lavaging the lungs two times in situ with 4 ml PBS buffer supplemented with 0.5% Bovine Serum Albumin (Serve, Darmstadt, Germany).
# Determination of total leukocyte and neutrophil counts in BALF was performed with an automated leukocyte differentiation system (XT-2000iV, Sysmex, Norderstedt, Germany).
# The baseline correction was done for each sample according to the formula: baseline-corrected cell count value=cell count−median (negative control group)
# Suppression of LPS-induced total cell and neutrophil influx into the lungs was calculated in % using the medians of the cell counts of each treatment group in relation to the control groups according to the formula: % effect=(Y−K)/K*100 • With defining: • Y=median of the baseline-corrected compound treated group • K=median of the baseline-corrected vehicle treated group
# Statistical analysis was performed on the primary cell count data using One-Way ANOVA and Dunnett's Multiple Comparison test vs. positive control.
Compound,ED50 [1] [mg/kg],ED50 [2] [mg/kg]
"O=C(O)/C=C/c1cccc(NC(=O)c2cc(-c3ccccc3)cc3ccccc23)c1 [Example 1, (2E)-3-(3-{[(3-phenylnaphthalen-1-yl)carbonyl]amino}phenyl)prop-2-enoic acid]",0.1 to 3,0.1 to 2
"O=C(O)/C=C/c1ccc(F)c(NC(=O)c2cc(-c3ccccc3)cc3ccccc23)c1 [Example 2, (2E)-3-(4-fluoro-3-{[(3-phenylnaphthalen-1-yl)carbonyl]amino}phenyl)prop-2-enoic acid]",0.1 to 3,0.1 to 2
"O=C(O)/C=C/c1ccc(Cl)c(NC(=O)c2cc(-c3ccccc3)cc3ccccc23)c1 [Example 3, (2E)-3-(4-chloro-3-{[(3-phenylnaphthalen-1-yl)carbonyl]amino}phenyl)prop-2-enoic acid]",0.1 to 3,0.1 to 2
"O=C(O)/C=C/c1ccc(F)c(NC(=O)c2cc(-c3ccccc3F)cc3ccccc23)c1 [Example 9, (2E)-3-{3-[({3-[2-fluorophenyl]naphthalen-1-yl}carbonyl)amino]-4fluorophenyl}prop-2-enoic acid]",0.1 to 3,0.1 to 2
"O=C(O)/C=C/c1ccc(F)c(NC(=O)c2cc(-c3cccc(F)c3)cc3ccccc23)c1 [Example 10, (2E)-3-{3-[({3-[3-fluorophenyl]naphthalen-1-yl}carbonyl)amino]-4fluorophenyl}prop-2-enoic acid]",0.1 to 3,0.1 to 2
